# Assay results from ChEMBL document CHEMBL1201862, “PubChem BioAssay data set” (2004).
# The source made the active and inactive calls.
# How the values were obtained:
# NADPH oxidase 1 = NADPH oxidase 1 (Homo sapiens, UniProt Q9Y5S8); assay type: functional, cell-based;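 also: Cell-based assay with luminescence read-out, IC50 derived from inhibitor dose-response curves; intracellular ROS from endogenous NOX1 in intact HT29 colon cancer cells; potency of inhibitors that lower the ROS luminescence signal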
# Chain of NADPH oxidase 1 (Q9Y5S8 whole entry): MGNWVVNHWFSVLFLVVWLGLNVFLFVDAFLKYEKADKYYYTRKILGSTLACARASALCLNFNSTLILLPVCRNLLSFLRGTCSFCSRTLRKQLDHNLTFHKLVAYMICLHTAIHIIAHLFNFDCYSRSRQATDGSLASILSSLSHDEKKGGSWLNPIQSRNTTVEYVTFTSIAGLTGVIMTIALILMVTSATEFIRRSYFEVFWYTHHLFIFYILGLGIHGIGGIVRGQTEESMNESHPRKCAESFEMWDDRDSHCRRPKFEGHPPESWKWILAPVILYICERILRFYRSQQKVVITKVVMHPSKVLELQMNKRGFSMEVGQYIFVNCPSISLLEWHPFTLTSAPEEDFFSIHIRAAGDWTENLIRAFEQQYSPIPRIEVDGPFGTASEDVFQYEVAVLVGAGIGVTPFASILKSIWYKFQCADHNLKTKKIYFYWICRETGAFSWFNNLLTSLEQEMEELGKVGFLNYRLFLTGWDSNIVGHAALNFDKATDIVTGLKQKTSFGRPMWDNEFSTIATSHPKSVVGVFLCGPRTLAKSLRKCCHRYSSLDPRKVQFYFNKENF
# HEK293 [1] = test: cells; conditions: Homo sapiens
# [2] = THP-1 cell cytotoxicity, dose response, cytotoxicity control for Vif-APOBEC3G degradation inhibitor project, THP-1 cells (AID 1117359); assay type: functional; conditions: Human immunodeficiency virus 1, THP-1
# HEK293 [3] = test: cells; conditions: Homo sapiens; remark: listed apart in the source
# [4] = PAX5 activity inhibitors, dose response, selectivity assay for PAX8 inhibitor project, cell-based, plate reader, dry powder samples (AID 743047); assay type: functional;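 also: HEK293 cells carrying a Pax5 driven CD19 promoter luciferase reporter; potency of inhibitors that lower reporter luminescence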
# [5] = cytotoxicity in OV-90 ovarian cancer cells, dose response, PAX8 inhibitor project, cell-based, plate reader, dry powder, SA8 (AID 743149); assay type: functional
# [6] = PAX2 cell-based inhibition, dose response, selectivity assay for PAX8 inhibitor project, plate reader, dry powder samples (AID 743048); assay type: functional;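 also: HEK293 cells carrying a WT1 promoter luciferase reporter driven by expressed Pax2; potency is for inhibition of Pax2 driven reporter signal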
# [7] = cytotoxicity in COV434 cells, dose response, cytotoxicity control for PAX8 inhibitor project, cell-based, plate reader, dry powder, SA7 (AID 743145); assay type: functional
# [8] = cytotoxicity dependent on PAX8, dose response, cell-based, plate reader, dry powder (AID 743049); assay type: functional
# [9] = MITF: Counter assay: A375 proliferation Measured in Cell-Based System Using Plate Reader - 2084-03_Inhibitor_Dose_DryPowder_Activity_Set8.; assay type: functional; conditions: A-375
# [10] = MITF Orthogonal Assay: SK-MEL-5 CTG Assay Measured in Cell-Based System Using Plate Reader - 2084-02_Inhibitor_Dose_DryPowder_Activity_Set7.; assay type: functional
# [11] = MITF Orthogonal Assay: MALME3 CTG Assay Measured in Cell-Based System Using Plate Reader - 2084-04_Inhibitor_Dose_DryPowder_Activity_Set6.; assay type: functional; conditions: MALME-3
# [12] = MALME3 melanoma cell viability reduction, dose response, orthogonal assay for MITF inhibitor project, CellTiter-Glo luminescence, dry powder, set 5 (AID 651584); assay type: functional, cell-based; conditions: MALME-3
# [13] = A375 melanoma cell viability loss, dose response, counter-screen for MITF modulator project, CellTiter-Glo luminescence, dry powder, set 9 (AID 651591); assay type: functional, cell-based; conditions: A-375
# [14] = TRPM1 promoter luciferase reporter signal decrease, dose response, MITF inhibitor project, cell-based, SK-MEL-5, dry powder, set 9 (AID 651588); assay type: functional
# [15] = SK-MEL-5 parental cell viability reduction, dose response, orthogonal assay for MITF inhibitor project, CellTiter-Glo luminescence, dry powder, set 8 (AID 651586); assay type: functional, cell-based
# [16] = TRPM1 promoter luciferase reporter signal decrease, dose response, MITF inhibitor project, cell-based, SK-MEL-5, dry powder, set 8 (AID 624430); assay type: functional
# [17] = target: T1, Mannose-6-phosphate isomerase (Homo sapiens, UniProt P34949); test: inhibitors of human PMI, primary screen, biochemical, fluorescence intensity, coupled assay (AID 1209)
# T1 sequence (P34949 whole entry): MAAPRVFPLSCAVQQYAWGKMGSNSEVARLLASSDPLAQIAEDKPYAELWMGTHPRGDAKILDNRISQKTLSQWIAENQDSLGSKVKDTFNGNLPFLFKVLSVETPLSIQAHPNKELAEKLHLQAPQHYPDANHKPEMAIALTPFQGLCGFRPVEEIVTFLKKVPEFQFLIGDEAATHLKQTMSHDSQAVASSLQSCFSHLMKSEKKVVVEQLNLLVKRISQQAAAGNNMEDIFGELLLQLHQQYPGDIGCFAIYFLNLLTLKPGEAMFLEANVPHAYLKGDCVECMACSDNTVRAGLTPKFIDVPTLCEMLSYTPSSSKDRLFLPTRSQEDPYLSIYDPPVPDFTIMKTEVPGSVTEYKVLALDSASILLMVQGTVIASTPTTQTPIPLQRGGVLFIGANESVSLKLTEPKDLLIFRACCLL
# [18] = target: Eukaryotic translation initiation factor 4E (Mus musculus, UniProt P63073); test: eIF4E–eIF4G protein interaction inhibitors, dose response, biochemical, TR-FRET (AID 855); assay type: functional;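 also: potency for disrupting eIF4E binding to eIF4GI seen as loss of FRET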
# Chain of Eukaryotic translation initiation factor 4E (P63073 whole entry): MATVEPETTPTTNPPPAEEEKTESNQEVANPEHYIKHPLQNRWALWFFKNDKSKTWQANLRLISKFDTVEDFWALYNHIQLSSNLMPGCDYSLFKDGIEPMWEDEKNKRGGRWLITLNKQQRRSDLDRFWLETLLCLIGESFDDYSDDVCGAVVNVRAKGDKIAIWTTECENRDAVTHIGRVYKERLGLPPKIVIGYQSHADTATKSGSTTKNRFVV
# Nonstructural protein 1 = Nonstructural protein 1 (Influenza A virus, UniProt Q194T2); assay type: functional, Influenza A virus (A/California/07/2009(H1N1))
# Chain of Nonstructural protein 1 (Q194T2 whole entry): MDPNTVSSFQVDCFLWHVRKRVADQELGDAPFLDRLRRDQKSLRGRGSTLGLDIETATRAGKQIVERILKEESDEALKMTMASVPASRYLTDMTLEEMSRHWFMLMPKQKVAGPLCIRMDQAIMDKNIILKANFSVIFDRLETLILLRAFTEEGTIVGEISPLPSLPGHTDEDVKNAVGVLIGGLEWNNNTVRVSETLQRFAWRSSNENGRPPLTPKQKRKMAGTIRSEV
# [19] = target: Glutathione-S-transferase (Schistosoma japonicum, UniProt Q26513); test: biotin-GST/anti-GST TR-FRET signal inhibitors, dose response, artefact control for Vif-APOBEC3G degradation inhibitor project, biochemical (AID 1117362); assay type: functional
# Chain of Glutathione-S-transferase (Q26513 whole entry): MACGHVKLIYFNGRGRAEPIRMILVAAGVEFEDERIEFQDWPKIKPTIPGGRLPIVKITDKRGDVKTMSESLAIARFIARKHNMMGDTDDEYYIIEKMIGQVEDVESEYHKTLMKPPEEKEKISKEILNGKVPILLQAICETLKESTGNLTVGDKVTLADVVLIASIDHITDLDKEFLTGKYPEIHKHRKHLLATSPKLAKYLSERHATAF
# [20] = target: T1, Mannose-6-phosphate isomerase; test: human PMI inhibitors, high substrate, primary screen, biochemical, fluorescence intensity, high mannose 6-phosphate (AID 1220)
# Genome polyprotein = Genome polyprotein (dengue virus type 2, UniProt P29990); test: Dengue-2 NS5 methyltransferase inhibitors, primary screen, biochemical, confirmation dose response (AID 588689); assay type: functional
# Chain of Genome polyprotein (P29990 2492-3391 limits assumed): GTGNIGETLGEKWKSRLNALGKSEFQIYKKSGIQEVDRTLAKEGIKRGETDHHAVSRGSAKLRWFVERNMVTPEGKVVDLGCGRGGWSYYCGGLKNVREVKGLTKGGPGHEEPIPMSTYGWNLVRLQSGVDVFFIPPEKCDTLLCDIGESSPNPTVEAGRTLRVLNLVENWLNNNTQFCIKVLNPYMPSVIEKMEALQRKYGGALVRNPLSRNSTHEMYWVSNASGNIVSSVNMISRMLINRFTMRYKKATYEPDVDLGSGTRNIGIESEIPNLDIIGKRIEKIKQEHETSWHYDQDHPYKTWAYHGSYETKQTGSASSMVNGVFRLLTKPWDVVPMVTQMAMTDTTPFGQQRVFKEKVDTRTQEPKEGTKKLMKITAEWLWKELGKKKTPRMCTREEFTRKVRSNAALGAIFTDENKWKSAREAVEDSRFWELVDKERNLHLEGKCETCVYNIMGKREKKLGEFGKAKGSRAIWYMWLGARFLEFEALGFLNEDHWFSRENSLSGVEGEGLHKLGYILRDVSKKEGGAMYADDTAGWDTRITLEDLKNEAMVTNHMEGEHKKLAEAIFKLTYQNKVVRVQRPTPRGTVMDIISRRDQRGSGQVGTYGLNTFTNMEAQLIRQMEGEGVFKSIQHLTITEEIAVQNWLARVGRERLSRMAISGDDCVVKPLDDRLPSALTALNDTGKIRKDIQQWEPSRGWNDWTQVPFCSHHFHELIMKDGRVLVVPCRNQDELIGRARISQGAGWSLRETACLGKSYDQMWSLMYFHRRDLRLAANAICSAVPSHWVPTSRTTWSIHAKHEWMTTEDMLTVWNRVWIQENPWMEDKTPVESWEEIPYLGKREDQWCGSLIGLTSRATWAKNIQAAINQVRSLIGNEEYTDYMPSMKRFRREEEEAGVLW
# [21] = C. albicans growth with fluconazole, confirmation, fluorescence, retest (AID 2467); assay type: functional, cell-based
# [22] = target: Induced myeloid leukemia cell differentiation protein Mcl-1 (Homo sapiens, UniProt Q07820); assay type: functional
# Chain of Induced myeloid leukemia cell differentiation protein Mcl-1 (Q07820 whole entry): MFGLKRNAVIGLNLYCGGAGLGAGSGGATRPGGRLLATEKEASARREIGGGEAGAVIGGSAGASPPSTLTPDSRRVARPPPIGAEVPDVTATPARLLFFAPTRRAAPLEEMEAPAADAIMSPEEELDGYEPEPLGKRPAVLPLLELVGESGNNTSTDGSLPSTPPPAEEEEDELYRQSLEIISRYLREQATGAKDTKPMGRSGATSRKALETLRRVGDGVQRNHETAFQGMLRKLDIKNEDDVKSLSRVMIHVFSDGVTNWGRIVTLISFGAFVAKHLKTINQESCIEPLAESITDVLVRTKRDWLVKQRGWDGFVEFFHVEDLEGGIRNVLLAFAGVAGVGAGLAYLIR
# [23] = NIH-3T3 fibroblast cytotoxicity, dose response, cytotoxicity control, cell-based, fluorescence, Alamar Blue, secondary assay (AID 2327); assay type: functional;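 also: NIH-3T3 mouse fibroblasts cultured with fluconazole at 8 µg/mL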
# [24] = P. falciparum Dd2 growth inhibitors, dose response, SYBR Green, dry powder samples, set 4 (AID 1159572); assay type: functional, cell-based
# [25] = P. falciparum Dd2 growth inhibitors, dose response, SYBR Green, cherry-picked samples (AID 1159567); assay type: functional, cell-based
# [26] = P. falciparum Dd2 growth inhibitors, dose response, SYBR Green, dry powder samples, set 9 (AID 1159568); assay type: functional, cell-based
# [27] = P. falciparum ATP4 D1247Y mutant growth inhibitors, dose response, NITD609-resistant line, SYBR Green, dry powder (AID 1159571); assay type: functional, cell-based;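 also: parasites synchronized at ring stage by sorbitol before testing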
# [28] = P. falciparum 3D7-ScDHODH growth inhibitors, dose response, SYBR Green, dry powder samples (AID 1159570); assay type: functional, cell-based;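 also: parasite growth measured after 72 hours of compound exposure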
# [29] = P. falciparum Dd2 growth inhibitors, dose response, SYBR Green, dry powder samples (AID 1159566); assay type: functional, cell-based;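 also: potency for growth inhibition with lower SYBR green DNA signal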
# [30] = Plasmodium falciparum Dd2 Sybr green parasite growth Measured in Cell-Based and Microorganism Combination System Using Plate Reader - 2153-01_Inhibitor_Dose_DryPowder_Activity_Set3.; assay type: functional
# [31] = HepG2 cell cytotoxicity, dose response, cytotoxicity control, plate reader, dry powder samples (AID 1159569); assay type: functional, cell-based;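 also: inhibitor potency with signal falling toward the positive control level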
# [32] = inhibitors of SNCA 5'UTR-driven reporter translation, confirmation, H4 neuroglioma cells, luminescence (AID 1988); assay type: functional, cell-based
# cells = assay type: functional, cell-based
# [33] = Luminescence Cell-Based Dose Response HTS to Identify Inhibitors of 5'UTR Stem-Loop Driven Prion Protein mRNA Translation in H4 Neuroglioblastoma Cells. [Related pubchem assays: 1827 (Project Summary), 1813 (Primary HTS)]; assay type: functional
# Vero = test: cells; assay type: functional, cell-based; conditions: Chlorocebus sabaeus
# [34] = luciferase reporter signal reduction – luminescence, H4-C neuroglioblastoma cells, dose response (AID 2458); assay type: functional, cell-based;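 also: H4 neuroglioblastoma cells stably carrying a luciferase reporter gene fusion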
# [35] = inhibitors of SNCA 5'UTR-driven translation, confirmation, luminescence, H4 neuroglioblastoma cells, dose confirmation (AID 2454); assay type: functional, cell-based;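 also: H4 neuroglioblastoma cells carrying an alpha-synuclein 5'UTR luciferase reporter; potency for inhibition of the luciferase signal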
# [36] = inhibitors of firefly luciferase expression or activity, dose response, H4 neuroglioma cells, luminescence (AID 1990); assay type: functional, cell-based
# [37] = Luminescence-based dose response cell-based high throughput screening assay for cytotoxic compounds using the IEC-6 intestinal epithelial cell line. [Related pubchem assays: 1858 (Summary AID.), 1825 (Counterscreen.), 1907 (Confirmation screen.)]; assay type: functional
smiles,measurement,setting,value
O=C(Nc1ccc(OCc2ccccc2)cc1)Nc1ccc([N+](=O)[O-])cc1,IC50,NADPH oxidase 1,> 17 µM (not active)
O=C(N/N=C/C(Br)=C/c1ccccc1)c1cc(-c2ccco2)[nH]n1,EC50,HEK293 [1],> 59.6 µM (inactive)
same,CC50,[2],33.1 µM (active)
same,EC50,HEK293 [3],> 59.6 µM (inactive)
COc1cccc(C#Cc2ccc([C@@H]3[C@@H](C#N)N(C(=O)C4CCCCC4)[C@@H]3CO)cc2)c1,AC50,[4],30.5 µM (active)
same,AC50,[5],57.3 µM (active)
same,AC50,[6],19.9 µM (active)
same,AC50,[7],69.6 µM (active)
same,AC50,[8],25.8 µM (active)
CN1CCN(C2=C(Nc3ccc(F)cc3F)C(=O)c3ccccc3C2=O)CC1,AC50,[9],> 70 µM (inactive)
same,AC50,[10],9.87 µM (active)
same,AC50,[11],25.4 µM (active)
same,AC50,[12],25.4 µM (active)
same,AC50,[13],> 70 µM (inactive)
same,AC50,[14],17.5 µM (active)
same,AC50,[15],> 70 µM (inactive)
same,AC50,[16],5.36 µM (active)
CCn1c(C)nc2cc(C(=O)N/N=C/c3ccc(O)c(O)c3O)ccc21,IC50,[17],7.02 µM (active)
same,IC50,[18],27.5 µM (active)
same,IC50,Nonstructural protein 1,16.6 µM (active)
same,IC50,[19],45 µM (active)
same,IC50,[20],8.47 µM (active)
same,IC50,Genome polyprotein,21.7 µM (active)
same,EC50,[21],1.6 µM (active)
same,IC50,[22],> 54 µM (active)
same,EC50,[23],104 µM (active)
COc1ccc2c3c([nH]c2c1)[C@H](CO)N(C(C)=O)CC31CCN(C(=O)c2ccc3c(c2)OCO3)CC1,AC50,[24],6.93 µM (active)
CCCC(=O)Nc1ccc2c(c1)OC[C@@H](C)N(Cc1cc(F)ccc1F)C[C@@H](C)[C@H](OC)CN(C)C2=O,AC50,[25],0.817 µM (active)
same,AC50,[26],0.978 µM (active)
same,AC50,[27],2.81 µM (active)
same,AC50,[28],7.15 µM (active)
same,AC50,[29],0.322 µM (active)
same,AC50,[30],2.07 µM (active)
same,AC50,[31],> 100 µM (inactive)
CN(C)c1ccc(C(=O)c2ccc(N(C)C)c3ccccc23)cc1,EC50,[32],< 0.1 µM (active)
same,EC50,cells,0.112 µM (active)
same,EC50,[33],< 0.1 µM (active)
same,IC50,Vero,> 25 µM (active)
same,EC50,[34],0.103 µM (active)
same,EC50,[35],0.118 µM (active)
same,EC50,[36],< 0.1 µM (active)
same,IC50,[37],0.146 µM (active)
